The record followed here is ChEMBL document CHEMBL1137544, “Syntheses of immunomodulating androstanes and stigmastanes: comparison of their TNF-alpha inhibitory activity” (Bioorg Med Chem, 2007).

The subject of data set [1] is J774.A1. Put plainly: Inhibition of LPS-induced TNFalpha production in mouse J774A.1 cells. In kind it is functional, cell-based.
Data set [2] deals with J774.A1. Put plainly: Cytotoxicity against mouse J774A.1 cells. It is filed as cell-based.

Calls of active or inactive are those of the source. The rule behind the calls is not given here.

On to `CC[C@@H](C(C)C)[C@H](O)[C@@H](O)[C@@H](C)[C@H]1CC[C@H]2[C@@H]3CC=C4C[C@@H](Cl)CC[C@]4(C)[C@H]3CC[C@]12C`, for which, in the data set with J774.A1 [1], the result was inactive.

As to `C[C@]12CC[C@H]3[C@@H](CC(=O)[C@@]4(O)C[C@@H](O)CC[C@]34C)[C@@H]1CCC2=O`, half-maximal inhibition in the data set on J774.A1 [1] (IC50) was put at 109 nM. Take `CC[C@@H](C(C)C)[C@H](O)[C@@H](O)[C@@H](C)[C@H]1CC[C@H]2[C@@H]3CC=C4C[C@@H](O)CC[C@]4(C)[C@H]3CC[C@]12C`: the IC50 in the data set on J774.A1 [1] turned out to be 35 nM. Same read-out and setting: for `C[C@]12CC[C@H](O)CC1=CC[C@@H]1[C@@H]2CC[C@]2(C)C(=O)CC[C@@H]12` [PRASTERONE] the value was 141 nM. On the same count and under the same terms, in the case of `CC[C@@H](C(C)C)[C@H](O)[C@@H](O)[C@@H](C)[C@H]1CC[C@H]2[C@@H]3CC(=O)[C@@]4(O)C[C@@H](F)CC[C@]4(C)[C@H]3CC[C@]12C` it was 47 nM. Regarding `CC[C@@H](C(C)C)[C@H](O)[C@@H](O)[C@@H](C)[C@H]1CC[C@H]2[C@@H]3CC=C4C[C@@H](F)CC[C@]4(C)[C@H]3CC[C@]12C`, the result with J774.A1 [1] was inactive. On to `CC[C@@H](C(C)C)[C@@H](O)[C@H](O)[C@@H](C)[C@H]1CC[C@H]2[C@@H]3CC(=O)[C@@]4(O)C[C@@H](Br)CC[C@]4(C)[C@H]3CC[C@]12C`, for which the Activity entry in the data set on J774.A1 [2] is recorded as “Toxic”.

In turn, `CC[C@@H](C(C)C)[C@H](O)[C@@H](O)[C@@H](C)[C@H]1CC[C@H]2[C@@H]3CC=C4C[C@@H](Br)CC[C@]4(C)[C@H]3CC[C@]12C` showed an IC50 in the data set with J774.A1 [1] of 144 nM. On the same count and under the same terms, for `C[C@]12CC[C@H]3[C@@H](CC(=O)[C@@]4(O)C[C@@H](Br)CC[C@]34C)[C@@H]1CCC2=O` the value was 134 nM. Take `C[C@]12CC[C@H]3[C@@H](CC(=O)[C@@]4(O)C[C@@H](Br)CC[C@]34C)[C@@H]1CCC(=O)O2`: the result in the data set with J774.A1 [1] was inactive. `CC[C@@H](C(C)C)[C@H](O)[C@@H](O)[C@@H](C)[C@H]1CC[C@H]2[C@@H]3CC(=O)[C@@]4(O)C[C@@H](O)CC[C@]4(C)[C@H]3CC[C@]12C` had an IC50 in the data set on J774.A1 [1] of 18 nM.

Compound `CC[C@@H](C(C)C)[C@H](O)[C@@H](O)[C@@H](C)[C@H]1CC[C@H]2[C@@H]3CC(=O)[C@@]4(O)C[C@@H](Br)CC[C@]4(C)[C@H]3CC[C@]12C` gave an IC50 in the data set on J774.A1 [1] of 38 nM. The same measure, in the same setting: for `C[C@@H]1C[C@H]2[C@@H]3CCC4=CC(=O)C=C[C@]4(C)[C@@]3(F)[C@@H](O)C[C@]2(C)[C@@]1(O)C(=O)CO` [DEXAMETHASONE] the value was 48 nM. For `CC[C@@H](C(C)C)[C@@H](O)[C@H](O)[C@@H](C)[C@H]1CC[C@H]2[C@@H]3CC(=O)[C@@]4(O)C[C@@H](F)CC[C@]4(C)[C@H]3CC[C@]12C`, the Activity result with J774.A1 [2] is given as “Toxic”.
